Patent US11236046B2, “Substituted heterocyclic sulfonamide compounds useful as TRPA1 modulators” (Genentech, Inc., priority 2013, dated 2022)

Target: T1, human TRPA1 (Homo sapiens (Human), UniProt O75762)
Assay: FLIPR Tetra calcium influx assay, block of cinnamaldehyde-induced calcium influx in CHO cells expressing TRPA1 (human)
Type: cell-based
Settings: 20 min compound incubation, 75 uM cinnamaldehyde (~EC80), Hill coefficient fixed to 1.5, read-out: hTRPA1 AUC IC50
Method in brief: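 CHO cells loaded with calcium dye, preincubated with compounds 20 min at room temperature in HBSS/20 mM HEPES pH 7.4 with 0.02% BSA. Channels activated by ~EC80 cinnamaldehyde (75 uM human, 45 uM rat); block of calcium influx read on FLIPR Tetra, IC50 fitted with fixed Hill coefficient.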

T1 sequence (O75762 whole entry): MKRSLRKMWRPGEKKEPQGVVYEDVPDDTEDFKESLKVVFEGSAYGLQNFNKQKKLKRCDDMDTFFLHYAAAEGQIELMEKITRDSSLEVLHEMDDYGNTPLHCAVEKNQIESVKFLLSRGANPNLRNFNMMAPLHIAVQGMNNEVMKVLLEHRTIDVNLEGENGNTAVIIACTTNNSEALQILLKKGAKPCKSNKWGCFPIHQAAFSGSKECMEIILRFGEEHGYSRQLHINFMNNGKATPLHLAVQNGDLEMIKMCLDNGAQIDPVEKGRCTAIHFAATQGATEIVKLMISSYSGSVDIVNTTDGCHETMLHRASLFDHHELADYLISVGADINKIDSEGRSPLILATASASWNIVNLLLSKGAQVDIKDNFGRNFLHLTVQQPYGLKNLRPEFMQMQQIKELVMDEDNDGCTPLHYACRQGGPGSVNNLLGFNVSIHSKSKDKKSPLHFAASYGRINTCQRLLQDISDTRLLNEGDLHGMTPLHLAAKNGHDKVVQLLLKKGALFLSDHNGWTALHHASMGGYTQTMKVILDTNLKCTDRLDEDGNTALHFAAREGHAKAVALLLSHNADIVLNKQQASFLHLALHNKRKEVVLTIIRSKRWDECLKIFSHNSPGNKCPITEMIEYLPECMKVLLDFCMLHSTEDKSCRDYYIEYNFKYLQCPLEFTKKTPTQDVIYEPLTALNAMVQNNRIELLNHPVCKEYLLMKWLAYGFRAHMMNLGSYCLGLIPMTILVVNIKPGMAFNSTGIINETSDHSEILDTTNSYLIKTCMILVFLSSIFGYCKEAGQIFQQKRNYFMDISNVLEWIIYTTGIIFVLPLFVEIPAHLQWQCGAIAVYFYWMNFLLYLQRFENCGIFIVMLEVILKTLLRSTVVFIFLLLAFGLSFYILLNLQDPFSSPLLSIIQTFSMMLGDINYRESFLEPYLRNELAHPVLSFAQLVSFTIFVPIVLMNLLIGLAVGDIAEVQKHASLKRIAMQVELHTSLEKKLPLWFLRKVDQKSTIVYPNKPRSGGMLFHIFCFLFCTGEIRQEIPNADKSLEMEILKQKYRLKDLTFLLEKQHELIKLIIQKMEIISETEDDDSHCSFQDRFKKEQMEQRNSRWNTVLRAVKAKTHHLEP

Row | Compound | IC50 [nM]
1 | C[C@@H]1C[C@@H](C(=O)NCc2cc(-c3ccc(C(F)(F)F)nc3)ncn2)N1S(=O)(=O)c1ccc(F)cc1 [Example 200, (2S,4R)-1-[(4-fluorobenzene)sulfonyl]-4-methyl-N-([6-[6-(trifluoromethyl)pyridin-3-yl]pyrimidin-4-yl]methyl)azetidine-2-carboxamide] | 333
2 | O=C(NCc1cc(-c2ccc(C(F)(F)F)nc2)ncn1)[C@@H]1CCN1S(=O)(=O)c1ccc(F)cc1 [Example 201, (S)-1-(4-fluorophenylsulfonyl)-N-((6-(6-(trifluoromethyl)pyridin-3-yl)pyrimidin-4-yl)methyl)azetidine-2-carboxamide] | 268
3 | (2S,4R)-4-fluoro-1-(4-fluorophenyl)sulfonyl-N-[[3-fluoro-5-[2-(trifluoromethyl)thiazol-5-yl]phenyl]methyl]pyrrolidine-2-carboxamide [Example 174] | 12
4 | (2S,4R)-4-fluoro-N-[[5-fluoro-4-[5-fluoro-6-(trifluoromethyl)-3-pyridyl]-2-pyridyl]methyl]-1-(4-fluorophenyl)sulfonyl-pyrrolidine-2-carboxamide [Example 65] | 40

Target: T1, human TRPA1
Assay: IC50 determination on the human TRPA1 channel, calcium fluorescence (Hamamatsu FDSS plate reader)
Type: cell-based
Settings: CHO cells expressing human TRPA1; block of cinnamaldehyde induced calcium influx; 20 minutes compound incubation; Hill coefficient fixed to 1.5; read-out: hTRPA1 AUC IC50
Protocol: IC50s (effective concentration) of compounds on the human TRPA1 channel were determined using a Hamamatsu FDSS fluorescence plate reader. CHO cells expressing human TRPA1 were plated into 384-well plates, incubated overnight at 37 C, and loaded with BD calcium indicator dye for 1 hr at 37° C. followed by 15 minutes. at room temperature. The assay buffer was Hank's Balanced Salt Solution (HBSS) containing 20 mM HEPES (pH readjusted to 7.4) along with 0.02% BSA.
Following dye load and plate cool down, compounds were added to the cells using the FDSS while monitoring fluorescence to determine whether any of the test compounds have TRPA1 agonist activity. Plates were then incubated with compound for 20 minutes at room temperature prior to adding agonist. Following this incubation, […] cinnamaldehyde was added to all wells of the plate and block of this cinnamaldehyde induced calcium influx was measured.
Fixing the Hill coefficient will generally reduce variability of the IC50 determination. The IC50s were examined by eye to make sure the MIN and MAX points were set correctly prior to validation of the results.

Row | Compound | IC50 [nM]
5 | C[C@@]1(C(=O)NCc2cc(-c3ccc(C(F)(F)F)nc3)ncn2)C[C@@H](F)CN1S(=O)(=O)c1ccc(F)cc1 (single isomer, unassigned) [Example 19] | 16
6 | C[C@@]1(C(=O)NCc2cc(-c3ccc(C(F)(F)F)cc3)ncn2)C[C@@H](F)CN1S(=O)(=O)c1ccc(F)cc1 (single isomer, unassigned) [Example 20] | 7
7 | C[C@@]1(C(=O)NCc2cc(-c3ccc(C(F)(F)F)nc3)ncn2)CCCN1S(=O)(=O)c1ccc(F)cc1 [Example 1, (S)-1-(4-fluorophenylsulfonyl)-2-methyl-N-((6-(6-(trifluoromethyl)pyridin-3-yl)pyrimidin-4-yl)methyl)pyrrolidine-2-carboxamide] | 51
8 | C[C@@]1(C(=O)NCc2cc(-c3ccc(C(F)(F)F)nc3)ncn2)CCN1S(=O)(=O)c1ccc(F)cc1 [Example 2, (S)-1-(4-fluorophenylsulfonyl)-2-methyl-N-((6-(6-(trifluoromethyl)pyridin-3-yl)pyrimidin-4-yl)methyl)azetidine-2-carboxamide] | 59
9 | O=C(NCc1cc(-c2ccc(C(F)(F)F)nc2)ncn1)[C@@H]1C[C@@H](F)CN1S(=O)(=O)c1ccc(F)cc1 [Example 3, (2S,4R)-4-fluoro-1-(4-fluorophenylsulfonyl)-N-((6-(6-(trifluoromethyl)pyridin-3-yl)pyrimidin-4-yl)methyl)pyrrolidine-2-carboxamide] | 97
10 | O=C(NCc1cc(-c2ccc(C(F)(F)F)nc2)ncn1)[C@@H]1C[C@H](F)CN1S(=O)(=O)c1ccc(F)cc1 [Example 4, (2S,4S)-4-fluoro-1-(4-fluorophenylsulfonyl)-N-((6-(6-(trifluoromethyl)pyridin-3-yl)pyrimidin-4-yl)methyl)pyrrolidine-2-carboxamide] | 819
11 | O=C(NCc1cc(-c2ccc(C(F)(F)F)cc2)ncn1)[C@@H]1C[C@@H](F)CN1S(=O)(=O)c1ccc(F)cc1 [Example 5, (2S,4R)-4-fluoro-1-(4-fluorophenylsulfonyl)-N-((6-(4-(trifluoromethyl)phenyl)pyrimidin-4-yl)methyl)pyrrolidine-2-carboxamide] | 15
12 | O=C(NCc1cc(-c2ccc(C(F)(F)F)cc2)ncn1)[C@@H]1C[C@@H](F)CN1S(=O)(=O)c1cccc(F)c1 [Example 6, (2S,4R)-4-fluoro-1-(3-fluorophenylsulfonyl)-N-((6-(4-(trifluoromethyl)phenyl)pyrimidin-4-yl)methyl)pyrrolidine-2-carboxamide] | 23
13 | O=C(NCc1cc(-c2ccc(C(F)(F)F)nc2)ncn1)[C@]1(CO)CCCN1S(=O)(=O)c1ccc(F)cc1 [Example 7, (R)-1-(4-fluorophenylsulfonyl)-2-(hydroxymethyl)-N-((6-(6-(trifluoromethyl)pyridin-3-yl)pyrimidin-4-yl)methyl)pyrrolidine-2-carboxamide] | 284
14 | O=C(NCc1cc(-c2ccc(C(F)(F)F)nc2)ncc1F)[C@@H]1C[C@@H](F)CN1S(=O)(=O)c1ccc(F)cc1 [Example 8, (2S,4R)-4-fluoro-N-((5-fluoro-6′-(trifluoromethyl)-2,3′-bipyridin-4-yl)methyl)-1-(4-fluorophenylsulfonyl)pyrrolidine-2-carboxamide] | 17
15 | O=C(NCc1cc(-c2ccc(C(F)(F)F)nc2)c(F)cn1)[C@@H]1C[C@@H](F)CN1S(=O)(=O)c1ccc(F)cc1 [Example 9, (2S,4R)-4-fluoro-N-((5′-fluoro-6-(trifluoromethyl)-3,4′-bipyridin-2′-yl)methyl)-1-(4-fluorophenylsulfonyl)pyrrolidine-2-carboxamide] | 20
16 | O=C(NCc1cc(-c2ccc(C3CC3)cc2)ncn1)[C@@H]1C[C@@H](F)CN1S(=O)(=O)c1ccc(F)cc1 [Example 10, (2S,4R)—N-((6-(4-cyclopropylphenyl)pyrimidin-4-yl)methyl)-4-fluoro-1-(4-fluorophenylsulfonyl)pyrrolidine-2-carboxamide] | 107
17 | O=C(NCc1cc(N2CCC(C(F)(F)F)CC2)ncn1)[C@@H]1C[C@@H](F)CN1S(=O)(=O)c1ccc(F)cc1 [Example 11, (2S,4R)-4-fluoro-1-(4-fluorophenylsulfonyl)-N-((6-(4-(trifluoromethyl)piperidin-1-yl)pyrimidin-4-yl)methyl)pyrrolidine-2-carboxamide] | 434
18 | O=C(NCc1cc(C2=CCC(C(F)(F)F)CC2)ncn1)[C@@H]1C[C@@H](F)CN1S(=O)(=O)c1ccc(F)cc1 (stereo partly drawn) [Example 12, (2S,4R)-4-fluoro-1-(4-fluorophenylsulfonyl)-N-((6-(4-(trifluoromethyl)cyclohex-1-enyl)pyrimidin-4-yl)methyl)pyrrolidine-2-carboxamide] | 30
19 | C[C@@]1(C(=O)NCc2cc(-c3ccc(C(F)(F)F)cn3)ncn2)CCCN1S(=O)(=O)c1ccc(F)cc1 [Example 14, (S)-1-(4-fluorophenylsulfonyl)-2-methyl-N-((6-(5-(trifluoromethyl)pyridin-2-yl)pyrimidin-4-yl)methyl)pyrrolidine-2-carboxamide] | 268
20 | O=C(NCc1cn(-c2ccc(C(F)(F)F)nc2)nc1Cl)[C@@H]1C[C@@H](F)CN1S(=O)(=O)c1ccc(F)cc1 [Example 15, (2S,4R)—N-([3-chloro-1-[6-(trifluoromethyl)pyridin-3-yl]-1H-pyrazol-4-yl]methyl)-4-fluoro-1-[(4-fluorobenzene)sulfonyl]pyrrolidine-2-carboxamide] | 30
21 | O=C(NCc1cn(-c2ccc(C(F)(F)F)cc2)nc1Cl)[C@@H]1C[C@@H](F)CN1S(=O)(=O)c1ccc(F)cc1 [Example 16, (2S,4R)—N-([3-chloro-1-[4-(trifluoromethyl)phenyl]-1H-pyrazol-4-yl]methyl)-4-fluoro-1-[(4-fluorobenzene)sulfonyl]pyrrolidine-2-carboxamide] | 8
22 | O=C(NCc1cn(-c2ccc(C(F)(F)F)nc2)nc1C1CC1)[C@@H]1C[C@@H](F)CN1S(=O)(=O)c1ccc(F)cc1 [Example 17, (2S,4R)—N-([3-cyclopropyl-1-[6-(trifluoromethyl)pyridin-3-yl]-1H-pyrazol-4-yl]methyl)-4-fluoro-1-[(4-fluorobenzene)sulfonyl]pyrrolidine-2-carboxamide] | 55
23 | N#Cc1ccc(S(=O)(=O)N2C[C@H](F)C[C@H]2C(=O)NCc2cn(-c3ccc(C(F)(F)F)cc3)nc2Cl)cc1 [Example 18, (2S,4R)—N-([3-chloro-1-[4-(trifluoromethyl)phenyl]-1H-pyrazol-4-yl]methyl)-1-[(4-cyanobenzene)sulfonyl]-4-fluoropyrrolidine-2-carboxamide] | 49
24 | O=C(NCc1cc(-c2ccc(OC(F)(F)F)cc2)ncn1)[C@@H]1C[C@@H](F)CN1S(=O)(=O)c1ccc(F)cc1 [Example 21, (2S,4R)-4-fluoro-1-(4-fluorophenylsulfonyl)-N-((6-(4-(trifluoromethoxy)phenyl)pyrimidin-4-yl)methyl)pyrrolidine-2-carboxamide] | 21
25 | Cc1nc(CNC(=O)[C@@H]2C[C@@H](F)CN2S(=O)(=O)c2ccc(F)cc2)cc(-c2ccc(C(F)(F)F)nc2)n1 [Example 22, (2S,4R)-4-fluoro-1-(4-fluorophenylsulfonyl)-N-((2-methyl-6-(6-(trifluoromethyl)pyridin-3-yl)pyrimidin-4-yl)methyl)pyrrolidine-2-carboxamide] | 87
26 | O=C(NCc1cc(-c2ccc(C3CC3)nc2)ncn1)[C@@H]1C[C@@H](F)CN1S(=O)(=O)c1ccc(F)cc1 [Example 23, (2S,4R)—N-((6-(6-cyclopropylpyridin-3-yl)pyrimidin-4-yl)methyl)-4-fluoro-1-(4-fluorophenylsulfonyl)pyrrolidine-2-carboxamide] | 2700
27 | O=C(NCc1cc(-c2ccc(C(F)(F)F)nc2)ncn1)[C@@H]1C[C@@H](F)CN1S(=O)(=O)c1ccc(Cl)s1 [Example 24, (2S,4R)-1-(5-chlorothiophen-2-ylsulfonyl)-4-fluoro-N-((6-(6-(trifluoromethyl)pyridin-3-yl)pyrimidin-4-yl)methyl)pyrrolidine-2-carboxamide] | 27
